The data set in a line: Pharmacokinetic analysis in male SD rats after IV bolus, plasma by LC-MS/MS. It is filed as in vivo. The note with it: rat, IV bolus 0.04 mg/kg; for Cmax / half-life: 3 rats per group; for half-life: read-out: T1/2, ± SD (converted); for MRT inf: read-out: MRT0-Inf (Mean Residence Time); for MRT last: read-out: MRT0-last (Mean Residence Time); for Vd: read-out: Vdss (apparent volume of distribution at equilibrium); for AUC(0-t): time zero to last measurable concentration; for AUC(0-inf): zero up to ∞. The protocol: Each of the tested compounds was administered as an IV bolus (3 rats per group) at a dose 0.04 mg/kg. Rats were fasted at least 12 hours prior to administration of test compound. […] Blood samples were processed for plasma and analyzed by LC-MS/MS for the following pharmacokinetic parameters: Cmax, T1/2, CL, Vdss, AUC0-last, AUC0-∞, MRT0-last, and MRT0-∞.

Results on four compounds are retold here after patent US11274099B2 (Superb Wisdom Limited, priority 2017, dated 2022).

Usually Cmax stands for the peak of the concentration-time curve. For orientation: AUC(0-t) means the area under the concentration-time curve up to a stated or last time point. Read a high AUC(0-t) as more exposure. As usually defined, the AUC(0-inf) is the area under the concentration-time curve extrapolated to infinity. Consider `[2H]C([2H])([2H])C(O)(Cn1c(COCC)nc2c(N)nc3ccccc3c21)C([2H])([2H])[2H]` [Compound 104, 2-((4-amino-2-(ethoxymethyl)-1H-imidazo[4,5-c]quinolin-1-yl)methyl)propan-1,1,1,3,3,3-d6-2-ol], for which the peak level (Cmax) was 40.3 ± 10.7 ng/mL, the half-life was 111 ± 63 min, the MRT inf came to 2.1 ± 0.663 h and the MRT last was found to be 1.5 ± 0.328 h. Further, the Vd came out at 2.62 ± 0.516 L/kg, the AUC(0-t) is 56.2 ± 6.51 ng·h/mL and the area under the curve AUC(0-inf) amounted to 60.4 ± 7.71 ng·h/mL.

As for `[2H]C([2H])([2H])C([2H])([2H])OCc1nc2c(N)nc3ccccc3c2n1CC(C)(C)O` [Compound 107, 1-(4-amino-2-((ethoxy-d5)methyl)-1H-imidazo[4,5-c]quinolin-1-yl)-2-methylpropan-2-ol], the peak level (Cmax) was 40.1 ± 8.82 ng/mL, the half-life was 145 ± 103 min, the MRT inf turned out to be 2.43 ± 0.735 h and the MRT last is 1.66 ± 0.151 h. Also, the Vd amounted to 3.23 ± 0.581 L/kg, the exposure AUC(0-t) was 54.8 ± 6.02 ng·h/mL and the AUC(0-inf) was determined as 59.4 ± 8.16 ng·h/mL.

Take `[2H]C([2H])([2H])C(O)(C([2H])([2H])[2H])C([2H])([2H])n1c(COCC)nc2c(N)nc3ccccc3c21` [Compound 113, 1-(4-amino-2-(ethoxymethyl)-1H-imidazo[4,5-c]quinolin-1-yl)-2-(methyl-d3)propan-1,1,3,3,3-d5-2-ol]: the Cmax turned out to be 44.5 ± 14.2 ng/mL, the half-life was 118 ± 106 min, the MRT inf worked out at 1.79 ± 0.884 h and the MRT last worked out at 1.26 h. The Vd turned out to be 2.61 ± 0.732 L/kg, the AUC(0-t) worked out at 49.3 ± 8.99 ng·h/mL and the AUC(0-inf) worked out at 53 ± 11.2 ng·h/mL.

Take `CCOCc1nc2c(N)nc3ccccc3c2n1CC(C)(C)O` [Resiquimod, 1-(4-Amino-2-(ethoxymethyl)-1H-imidazo[4,5-c]quinolin-1-yl)-2-methylpropan-2-ol, reference compound]: the maximum concentration (Cmax) is 43.8 ± 10.9 ng/mL, the half-life was 61.8 ± 103 min, the MRT inf was 1.37 ± 0.139 h and the MRT last stood at 1.09 ± 0.081 h. Moreover, the Vd amounted to 2.46 ± 0.361 L/kg, the AUC(0-t) came to 42.1 ± 6.04 ng·h/mL and the AUC(0-inf) stood at 45.9 ± 6.67 ng·h/mL.
